# Source: patent US12016858B2, “Methods for the treatment of abnormal involuntary movement disorders” (AUSPEX PHARMACEUTICALS, INC., priority 2015, dated 2024)
# Assays:
# [1] = system: patients with moderate to severe tardive dyskinesia; test: ARM-TD randomized, double-blind, placebo-controlled study; type: in vivo, human
# Source text: An additional clinical study, Aim to Reduce Movements in […] Dyskinesia (ARM-TD) was designed and conducted to evaluate the efficacy of SD-809 (deutetrabenazine) in the treatment of moderate to severe tardive dyskinesia. […] Subjects were screened for inclusion in the study as follows. Inclusion criteria included: between 18 and 75 years of age, inclusive; history of using a dopamine receptor antagonist for at least 3 months (or 1 month in subjects 60 years of age and older); clinical diagnosis of TD, and has had symptoms for at least 3 months prior to Screening; […] Dosing. […] Drug was then administered at that dose for another six weeks for a total treatment of 12 weeks, followed by a 1-week washout period. […] Dose suspensions of up to one week were permitted if the subject experienced a clinically significant adverse event. Study Objectives and Endpoints. The objectives of the study was to evaluate the efficacy of SD-809 in reducing the severity of abnormal involuntary movements associated with tardive dyskinesia and the safety and tolerability of titration and maintenance therapy with deutetrabenazine in subjects with drug-induced tardive dyskinesia. […] Baseline AIMS score is defined for each subject as the Day 0 assessment. The AIMS is composed of 12 clinician-administered and scored items. Items 1-10 are rated on a 5-point, anchored scale and consist of the following: • Items 1-4 assess orofacial movements; • Items 5-7 deal with extremity and truncal dyskinesia; • Items 8-10 deal with global severity as judged by the examiner, and the patient's awareness of the movements and the distress associated with them; and • Items 11-12 are yes/no questions concerning problems associated with teeth and/or dentures, as such problems can be mistaken for dyskinesia. […] As with previous studies, […] treatment success may be defined as Much or Very Much Improved on a 7-point Likert Scale, ranging from very much worse to very much improved at Week 12. The CDQ-24 is a disease-specific quality of life questionnaire developed for use in patients with craniocervical dystonia, including both cervical dystonia (CD) and blepharospasm (BPS). The CDQ-24 was selected for use in the present study because it includes domains which are relevant not only to CD and BPS, but to TD, such as stigma, emotional well-being, pain, activities of daily living, and social/family life. For the present study, the CDQ-24 has been modified such that the questions focus more directly on the impact of TD (as opposed to CD/BPS) on quality of life. […] Measurements and Statistics. Digital video recordings of AIMS assessments made at all clinic visits (at Screening, Baseline, Weeks 2, 4, 6, 9, and 12) were rated by pairs of central raters who were experts in movement disorders and were blinded to treatment arm, sequence of video, and the investigator AIMS score. Analysis was carried out using a linear mixed model for repeated measurements (MMRM) with the change in the AIMS score as the dependent variable. The model included fixed effects for treatment group, time point (five levels: Weeks 2, 4, 6, 9, and 12), the treatment group by time point interaction, and the randomization stratification variable. The unstructured covariance model was used and the primary analysis compared the deutetrabenazine and placebo groups at Week 12 using a two-sided test at the 5% level of significance.
# [2] = Phase 1 pharmacokinetic comparison of deutetrabenazine and tetrabenazine; type: in vivo, healthy volunteer subjects; details: 24-mg dose of deutetrabenazine
# Source text: The guidance for investigators on conversion of subjects from stable doses of tetrabenazine to deutetrabenazine in the ARC-HD Switch study was designed to minimize the risk that dose conversion would result in either loss of efficacy or increased adverse events. The conversion method applied was based on modeling and simulation of Phase 1 pharmacokinetic data for deutetrabenazine and tetrabenazine. The objective of the pharmacokinetic analysis was to identify an initial dosing regimen of deutetrabenazine predicted to provide exposure at steady state of the active α and β metabolites that was less than or equal to the predicted AUC at steady state of the active alpha and beta metabolites of tetrabenazine, but with a lower Cmax.
# In a Phase 1 single-center, open-label, crossover clinical trial, each of 24 healthy volunteer subjects received single doses of 25 mg of tetrabenazine and 15 mg of deutetrabenazine. […]
# Subjects in the Switch cohort completed a full screening evaluation. […] The investigator, in consultation with the subject and caregiver, determined when an adequate level of chorea control had been achieved. If a subject experienced a “clinically significant” adverse event attributable to deutetrabenazine, the investigator determined if a dose reduction or suspension was necessary.
# [3] = n = 58, count (percent), listed as DTBZ
smiles,measurement,setting,value
"[2H]C([2H])([2H])Oc1cc2c(cc1OC([2H])([2H])[2H])C1CC(=O)C(CC(C)C)CN1CC2 (stereo not drawn) [deutetrabenazine, (RR, SS)-1,3,4,6,7,11b-hexahydro-9,10-di(methoxy-d3)-3-(2-methylpropyl)-2H-benzo[a]quinolizin-2-one]","CGIC Treatment Success, Treatment Difference",[1]; DTBZ vs Placebo,7.90%
same,"Change from baseline mCDQ-24, Treatment Difference",[1]; DTBZ vs Placebo,−2.7
same,"PGIC Treatment Success, Treatment Difference",[1]; DTBZ vs Placebo,13.00%
same,"AIMS Change (LS Mean), Treatment Difference","[1]; DTBZ vs Placebo, p-value 0.0188",−1.4
same,Change from baseline mCDQ-24,[1]; N = 56,−11.1
same,CGIC Treatment Success (%),"[1]; Week 12, N = 56",48.20%
same,PGIC Treatment Success N (%),"[1]; Week 12, N = 56",42.90%
same,AIMS Change (LS Mean),"[1]; baseline to Week 12, N = 56",−3
same,improvement on the AIMS score,[1]; baseline to end of therapy,3.0 points
same,Depression/depressed mood reported,[1]; in vivo,one patient
same,suicidal ideation reported,[1]; in vivo,none
same,Any TEAEs (Treatment-Emergent Adverse Events),"[1]; n = 58, count (percent)",41 (70.7%)
same,TEAE Anxiety,"[1]; n = 58, count (percent)",3 (5.2%)
same,TEAE Chest pain,"[1]; n = 58, count (percent)",1 (1.7%)
same,TEAE Constipation,"[1]; n = 58, count (percent)",2 (3.4%)
same,TEAE Diarrhea,"[1]; n = 58, count (percent)",3 (5.2%)
same,TEAE Dizziness,"[1]; n = 58, count (percent)",2 (3.4%)
same,TEAE Dry mouth,"[1]; n = 58, count (percent)",2 (3.4%)
same,TEAE Fatigue,"[1]; n = 58, count (percent)",4 (6.9%)
same,TEAE Headache,"[1]; n = 58, count (percent)",4 (6.9%)
same,TEAE Nasopharyngitis,"[1]; n = 58, count (percent)",2 (3.4%)
same,TEAE Nausea,"[1]; n = 58, count (percent)",2 (3.4%)
same,TEAE Pneumonia,"[1]; n = 58, count (percent)",1 (1.7%)
same,TEAE Upper respiratory tract infection,"[1]; n = 58, count (percent)",2 (3.4%)
same,TEAE Vomiting,"[1]; n = 58, count (percent)",1 (1.7%)
same,Serious TEAEs,[1]; [3],4 (6.9%)
same,TEAE Akathisia,[1]; [3],3 (5.2%)
same,TEAE Insomnia,[1]; [3],4 (6.9%)
same,TEAE Somnolence/sedation,[1]; [3],9 (15.5%)
same,TEAEs Resulting in Study Withdrawal,[1]; [3],1 (1.7%)
same,peak concentration (Cmax) vs 50 mg of tetrabenazine,[2],lower peak concentration (Cmax)
same,systemic exposure (AUC),[2],comparable systemic exposure (AUC) to 50 mg of tetrabenazine
